Where two headings read alike, the source gives them in different places.
How the values were obtained:
[1] = target: AEA-DA lipid probe targets in Neuro2a cells (Mus musculus, UniProt Q80YV4); conditions: competitor 200 μM
[2] = test system: membrane and soluble proteins of HEK293T cells; assay: Gel-based profiling of lipid probe labeling in HEK293T cells; assay type: cell-based, human; conditions: probe 20 μM, 30 min, UV
Experimental: For gel-based analysis, after sonicating the membrane pellets in cold DPBS, protein concentrations of each fraction were determined using the BCA protein assay (Bio-Rad) and a microplate reader (Tecan, Infinite F500).
(§1) Proteomes were diluted to 1.0 mg/mL (total protein concentration) and 50 μL of each proteome was transferred to separate wells in a 96-well plate.
In some instances, within the arachidonoyl subset of probes, fatty acid- and fatty acid amide-based probes (AA-DA and AEA-DA, respectively) were synthesized and their potential were evaluated to bind and covalently modify (under UV-light exposure) proteins in human cells by gel-based profiling. For example, HEK293T cells were treated with probe (AA-DA or AEA-DA; 20 μM, 30 min), irradiated with UV light (10 min, 4° C.), lysed and the cell proteomes fractionated into membrane and soluble components by centrifugation prior to conjugation to a fluorescent reporter tag (Rh—N3) using CuAAC (FIG. 4A). […] In some instances, this was a consequence of rapid sequestration of this probe into membranes through its metabolic incorporation into phospho/neutral-lipids or into lipidated proteins. […] In some instances, the labeling profile of the AEA-DA probe reflected a limited capacity of the cell to metabolize this amidated probe, which undergoes enzyme-mediated hydrolysis prior to incorporation into other lipids or proteins.

[3] = target: AEA-DA lipid probe targets in Neuro2a cells (Mus musculus, UniProt Q9QXS1); conditions: competitor 25 μM
[4] = target: T1, AEA-DA lipid probe targets in Neuro2a cells (Mus musculus, UniProt P45878); conditions: protein Fkbp2, Neuro2a cells
T1 sequence (P45878 23-140): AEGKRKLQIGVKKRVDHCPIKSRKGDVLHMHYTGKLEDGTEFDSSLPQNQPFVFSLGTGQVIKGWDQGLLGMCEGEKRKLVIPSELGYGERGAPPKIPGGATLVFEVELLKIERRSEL

[5] = target: AEA-DA lipid probe targets in Neuro2a cells (Mus musculus, UniProt P21619); conditions: protein Lmnb2; Neuro2a cells; competitor 50 μM
Sequence of AEA-DA lipid probe targets in Neuro2a cells (Mus musculus, UniProt P21619) (P21619 whole entry): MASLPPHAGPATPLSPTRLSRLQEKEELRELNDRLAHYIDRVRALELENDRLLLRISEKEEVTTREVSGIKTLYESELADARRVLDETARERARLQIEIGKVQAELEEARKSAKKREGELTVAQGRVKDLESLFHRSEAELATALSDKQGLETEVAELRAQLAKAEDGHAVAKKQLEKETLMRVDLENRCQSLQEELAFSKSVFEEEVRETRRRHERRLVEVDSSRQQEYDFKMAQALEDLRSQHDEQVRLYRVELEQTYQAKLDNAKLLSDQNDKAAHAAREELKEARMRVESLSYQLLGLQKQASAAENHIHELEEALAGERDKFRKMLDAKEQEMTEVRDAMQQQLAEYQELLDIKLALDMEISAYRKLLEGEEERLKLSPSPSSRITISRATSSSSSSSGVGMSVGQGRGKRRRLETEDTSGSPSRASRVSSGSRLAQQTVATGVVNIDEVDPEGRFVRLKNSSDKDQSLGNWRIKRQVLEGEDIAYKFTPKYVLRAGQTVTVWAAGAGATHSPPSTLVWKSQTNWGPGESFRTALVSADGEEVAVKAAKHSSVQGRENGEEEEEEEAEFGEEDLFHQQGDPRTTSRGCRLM

recombinant TMEM97 = target: T2, recombinant TMEM97 (Homo sapiens, UniProt Q5BJF2); assay: In situ gel-based competition of arachidonoyl probe labeling of recombinant TMEM97 in HEK293T cells; assay type: cell-based; conditions: TMEM97-transfected HEK293T cells, probe 5 μM, competitor 25 μM
T2 construct: Full-length cDNAs encoding for the each protein of interest were subcloned into pcDNA3.1 myc-His A; expressed in transfected cells; host or cells: HEK293T
T2 sequence (Q5BJF2 whole entry, species assumed): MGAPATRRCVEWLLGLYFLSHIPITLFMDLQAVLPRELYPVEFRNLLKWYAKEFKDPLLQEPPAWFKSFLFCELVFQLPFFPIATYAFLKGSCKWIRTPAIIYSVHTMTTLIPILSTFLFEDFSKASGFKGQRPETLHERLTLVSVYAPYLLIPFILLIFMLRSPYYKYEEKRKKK
Experimental: as §1
Full-length cDNAs encoding for the each protein of interest were subcloned into pcDNA3.1 myc-His A (Invitrogen) or used directly for transfections if available in a eukaryotic expression vector. HEK293T cells were grown to ˜70% confluence under standard growth conditions before adding the appropriate cDNA [control cells (“mock”) received an equal amount of empty pcDNA3.1 myc-His A vector] and FuGENE 6 or X-tremeGENE HP (Roche) transfection reagent according to the manufacturer's instructions. Cells were incubated for 36-48 hours before labeling in situ or harvesting for in vitro experiments.

Sequence of AEA-DA lipid probe targets in Neuro2a cells (Mus musculus, UniProt Q80YV4) (Q80YV4 whole entry): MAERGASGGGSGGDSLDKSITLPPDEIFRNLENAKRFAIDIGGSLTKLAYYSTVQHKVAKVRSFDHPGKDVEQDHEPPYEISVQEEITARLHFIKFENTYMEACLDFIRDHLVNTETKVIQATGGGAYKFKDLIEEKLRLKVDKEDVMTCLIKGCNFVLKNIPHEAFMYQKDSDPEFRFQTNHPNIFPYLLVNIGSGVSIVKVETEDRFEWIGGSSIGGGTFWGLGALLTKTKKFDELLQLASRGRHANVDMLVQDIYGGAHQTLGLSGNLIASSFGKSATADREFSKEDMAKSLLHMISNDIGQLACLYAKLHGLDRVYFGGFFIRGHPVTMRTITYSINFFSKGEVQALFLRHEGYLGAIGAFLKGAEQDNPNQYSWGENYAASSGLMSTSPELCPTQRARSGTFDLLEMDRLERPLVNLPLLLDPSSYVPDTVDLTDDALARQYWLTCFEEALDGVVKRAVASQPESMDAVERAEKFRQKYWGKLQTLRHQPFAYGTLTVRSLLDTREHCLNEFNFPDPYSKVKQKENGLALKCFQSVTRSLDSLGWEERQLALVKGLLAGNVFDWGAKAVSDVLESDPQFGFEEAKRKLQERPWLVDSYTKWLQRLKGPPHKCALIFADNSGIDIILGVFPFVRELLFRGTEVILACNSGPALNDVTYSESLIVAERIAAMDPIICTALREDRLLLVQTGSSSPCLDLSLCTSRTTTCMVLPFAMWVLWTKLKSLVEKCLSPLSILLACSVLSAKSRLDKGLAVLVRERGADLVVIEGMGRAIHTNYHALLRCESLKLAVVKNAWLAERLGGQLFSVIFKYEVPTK

CCCCC/C=C\C/C=C\C/C=C\C/C=C\CCCC(=O)NCCO [AEA, anandamide, reference compound]
SILAC ratio Pank4 [1]: 1.6

C#CCCCC1(CC/C=C\C/C=C\C/C=C\CCCC(=O)NCCO)N=N1 [AEA-DA, (5Z,8Z,11Z)-N-(2-hydroxyethyl)-14-(3-(pent-4-yn-1-yl)-3H-diazirin-3-yl)tetradeca-5,8,11-trienamide]
protein labeling profile (membrane vs soluble) [2]: substantial labeling of both soluble and membrane proteins

O=C(/C=C/c1cccnc1)NCCCCC1CCN(C(=O)c2ccccc2)CC1 [FK-866, reference compound]
SILAC ratio, Plec [3]: 2.1

CN1CCN(C(=O)c2[nH]c3ccc([N+](=O)[O-])cc3c2-c2ccccc2)CC1 [MJN228, (4-Methylpiperazin-1-yl)(5-nitro-3-phenyl-1H-indol-2-yl)methanone]
SILAC ratio (AEA-DA competition) ([4]; competitor 10 μM): 1.1 | SILAC ratio (AEA-DA competition) ([4]; competitor 25 μM): 1.6 | SILAC ratio (AEA-DA competition) ([4]; competitor 100 μM): 1.1 | SILAC ratio (AEA-DA competition) [5]: 1.9

C=CCN(C)CCCCCCOc1ccc(C(=O)c2ccc(Br)cc2)c(F)c1 [Ro 48-8071, reference compound]
competition of arachidonoyl probe labeling of recombinant TMEM97 (recombinant TMEM97): competition was observed
